Measured values published in patent US20200113852A1, “METHODS OF PATIENT SELECTION AND TREATING TRXR- OR PRDX-OVEREXPRESSED CANCERS” (TRIACT THERAPEUTICS, INC., priority 2017, published 2020).
Like-named read-outs stand apart in the source and are kept apart here. Blank lines part the entries; values can stand above or below the molecule they belong to.

Columns and labels:
[1] = target: T1, TrxR1 and other protein targets in HCT116 cells (Homo sapiens, UniProt Q16881)
T1 sequence (Q16881 1-499 isoform Q16881-5): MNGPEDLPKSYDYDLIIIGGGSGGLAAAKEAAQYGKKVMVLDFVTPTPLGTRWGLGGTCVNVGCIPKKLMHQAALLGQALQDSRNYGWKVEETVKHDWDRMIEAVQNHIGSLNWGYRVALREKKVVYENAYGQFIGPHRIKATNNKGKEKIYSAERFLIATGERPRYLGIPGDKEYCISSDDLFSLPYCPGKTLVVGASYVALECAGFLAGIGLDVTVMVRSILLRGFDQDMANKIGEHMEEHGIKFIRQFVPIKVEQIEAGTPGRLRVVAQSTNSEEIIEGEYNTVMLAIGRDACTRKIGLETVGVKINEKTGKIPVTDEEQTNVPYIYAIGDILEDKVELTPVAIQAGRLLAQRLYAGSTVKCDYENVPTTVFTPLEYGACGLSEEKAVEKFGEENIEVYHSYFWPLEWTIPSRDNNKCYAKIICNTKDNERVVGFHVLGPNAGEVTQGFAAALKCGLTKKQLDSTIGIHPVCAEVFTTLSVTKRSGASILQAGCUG
Method: (§3) TrxR1 immunoprecipitates (FIG. 17A) and cells extracts (FIG. 17B) were analysed by SDS-PAGE under reducing conditions followed by streptavidin-HRP blot and TrxR1 blot.
(§4) Clarified octyl-glucoside lysates (12 mg proteins) were combined with anti-TrxR1 or anti-TrxR2 monoclonal antibody coupled to protein G plus agarose (Santa Cruz Biotechnology) and mixed overnight at 4° C. Beads were recovered by centrifugation for 2 min at 1,000×g and extensively washed in octyl-glucoside lysis buffer. Precipitated complexes were eluted by incubating the beads for 20 min at 60° C. in SDS sample buffer. The amount of immunoprecipitated TrxR1 and TrxR2 was systematically checked by blots anti-TrxR1 and anti-TrxR2, respectively.

[2] = test system: TrxR1 and other protein targets in HCT116 cells; details: GSH-depleted HCT116
Method: as §3, §4

[3] = test system: Trx, JNK, p38MAPK, PARP in HCT116 cells; test: Cell death signaling western blots (Trx oxidation, phospho-JNK, phospho-p38MAPK, cleaved-PARP)
Method: Cells extracts were analyzed by SDS-PAGE either under reducing conditions or under non-reducing conditions in the case of Trx blot followed by blots anti-phospho-JNK, anti-phospho-p38MAPK, anti-cleaved-PARP and anti-Trx. Results are representative of three independent experiments.
After 2 h at 4° C., lysates were clarified by centrifugation and protein amounts were measured using the BCA assay (Pierce, Thermo scientific).
Equal amounts of proteins were resolved by SDS-PAGE under either non-reducing or reducing (5% 2-mercaptoethanol, 20 min at 60° C.) conditions, using 4-20% gels (Novex, Invitrogen), then subjected to semi-dry electrophoretic transfer onto nitrocellulose membranes.

TrxR in MDA-MB-231 cells = test: Endogenous TrxR activity (DTNB reduction assay); assay type: cell-based, human; details: GSH-depleted MDA-MB-231; iniparib 100 μM, Auranofin 1 μM, up to 4 h
From the text: Initial velocities were derived from linear regression analyses and then plotted in double reciprocal plots to obtain the half time of TrxR inhibition using an one phase exponential decay analysis (Prism, GraphPad software).

TrxR in HCT116 cells = target: T2, TrxR in HCT116 cells (Homo sapiens, UniProt Q16881); test: Endogenous TrxR activity in cell lysates (DTNB reduction assay); assay type: cell-based
T2 sequence (Q16881 1-649): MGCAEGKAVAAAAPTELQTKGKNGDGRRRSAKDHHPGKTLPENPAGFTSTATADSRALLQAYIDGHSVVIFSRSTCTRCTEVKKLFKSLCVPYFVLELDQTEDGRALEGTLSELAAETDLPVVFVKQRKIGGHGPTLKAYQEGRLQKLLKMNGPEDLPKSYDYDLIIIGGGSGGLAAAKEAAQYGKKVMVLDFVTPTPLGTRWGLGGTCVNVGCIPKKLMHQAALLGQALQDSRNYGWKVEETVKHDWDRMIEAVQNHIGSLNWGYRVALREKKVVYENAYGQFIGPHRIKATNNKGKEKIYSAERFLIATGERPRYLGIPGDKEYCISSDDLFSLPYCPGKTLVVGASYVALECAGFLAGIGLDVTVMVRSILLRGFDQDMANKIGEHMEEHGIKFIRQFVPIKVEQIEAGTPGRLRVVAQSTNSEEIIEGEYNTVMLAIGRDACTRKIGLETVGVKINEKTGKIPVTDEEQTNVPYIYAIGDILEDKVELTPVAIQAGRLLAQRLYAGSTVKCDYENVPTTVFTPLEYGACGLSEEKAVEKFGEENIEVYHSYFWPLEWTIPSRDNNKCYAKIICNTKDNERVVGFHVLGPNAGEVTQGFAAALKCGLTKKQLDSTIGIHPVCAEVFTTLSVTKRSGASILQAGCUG

[4] = test system: GSH in HCT116 and MDA-MB-453 cell lines; test: GSH depletion with BSO (GSH-Glo glutathione assay); assay type: cell-based, human; details: 1 mM BSO for 18 h, both cell lines
Method: Cells were seeded (96 well plates) at increasing densities, the highest density corresponding to that used for viability studies. […] GSH amount was measured thereafter using GSH-Glo™ glutathione assay.

[5] = Phase I clinical trial GBM, pharmacokinetics; assay type: in vivo, human; details: for Cmax: geometric mean±SD, plasma; for Metabolite/iniparib concentration ratio: arithmetic average±SD
From the text: No cytochrome P450-inducing anticonvulsants. However, Gliadel was permitted.
Dosing is IV 2×/week continuous.

MDA-MB-453 cells = test: Iniparib metabolites release, XLC-MS/MS of incubation media; assay type: in vitro ADME, human; design: unit not given beside the values
Method: (§1) Online solid phase extraction (SPE) was performed using the fully automated Spark Holland Symbiosis™ (Emmen, The Netherlands) in eXtraction Liquid Chromatography (XLC) mode. The Symbiosis™ has previously been described in detail (18). HySphere™ C18 HD 7 μm SPE cartridges were used (Spark Holland). Each cartridge was initially conditioned with 2 ml methanol+0.5% formic acid (FA) and then equilibrated with 2 ml water+0.5% FA, both at flow-rates of 4 ml/min. Sample (25 μl) was aspirated and loaded onto the cartridge with 1 ml water+0.5% FA at a flow-rate of 1 ml/min. […] After elution, the right clamp was washed successively with 2 ml water+0.5% FA, 2 ml methanol+0.5% FA and 2 ml water+0.5% FA at 4 ml/min. […] The mobile phase composition was returned to starting conditions over 1 min and maintained during 6 min for column equilibration. The total run time was 27 min. Mass spectrometry was performed using the Thermo® TSQ Quantum Discovery Max in electrospray positive ionization mode (Thermo, US) with the following parameters: capillary voltage=4.0 kV, capillary temperature=300° C., sheath gas pressure=40, auxiliary gas pressure=5.
(§2) All values are expressed as means±SEM of three independent experiments. ND., non detectable.

HCT116 cells = test: as above; assay type: in vitro ADME, human; design: unit not given beside the values
Method: as §1, §2

[6] = target: T3, human recombinant glutathione S-transferase pi (GSTP1) (Homo sapiens, UniProt P09211); test: In vitro Iniparib-glutathione conjugation; assay type: biochemical; details: 30 μM, 1 mM GSH, absence of GSTP1
T3 construct: purchased Acris
T3 sequence (P09211 whole entry): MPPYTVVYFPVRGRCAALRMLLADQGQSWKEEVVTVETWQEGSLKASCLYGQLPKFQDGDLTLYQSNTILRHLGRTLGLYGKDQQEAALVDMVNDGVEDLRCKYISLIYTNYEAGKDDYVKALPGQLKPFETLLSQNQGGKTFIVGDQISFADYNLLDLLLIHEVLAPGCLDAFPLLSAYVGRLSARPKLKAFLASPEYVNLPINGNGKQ
Method: as §1

recombinant human GAPDH = target: T4, recombinant human GAPDH (Homo sapiens, UniProt P04406); test: In vitro modification of GAPDH by Iniparib and I-NOBA; assay type: binding
T4 construct: purchased Acris
T4 sequence (P04406 whole entry): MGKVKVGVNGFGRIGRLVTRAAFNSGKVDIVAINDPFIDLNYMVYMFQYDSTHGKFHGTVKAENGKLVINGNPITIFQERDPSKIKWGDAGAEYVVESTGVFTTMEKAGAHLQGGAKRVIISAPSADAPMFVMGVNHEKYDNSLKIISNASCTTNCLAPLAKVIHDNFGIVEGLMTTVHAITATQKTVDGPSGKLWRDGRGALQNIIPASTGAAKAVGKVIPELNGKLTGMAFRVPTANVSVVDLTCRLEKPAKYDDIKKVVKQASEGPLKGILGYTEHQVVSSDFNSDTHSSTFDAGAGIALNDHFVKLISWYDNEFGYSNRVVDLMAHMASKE
Method: For biochemical analysis, recombinant human GAPDH (Acris) was first reduced by a 15,000-fold excess of DTT at 56° C. for 30 min, the reducing agent being removed thereafter by chloroform/methanol precipitation. […] Afterwards the samples were submitted or not to another reducing step with 25 mM DTT (56° C., 30 min), and after removal of DTT by chloroform/methanol precipitation, biotinylation of free cysteine sulfhydryl groups of GAPDH was performed with HPDP-biotin (N-[6-(Biotinamido)hexyl]-3′-(2′-pyridyldithio)propionamide) at […] for 2 h at 20° C.
Sample mixtures were then reduced or not with 25 mM DTT (56° C., 30 min). Intact molecular weights were measured by mass spectrometry. Liquid chromatography-electrospray ionization mass spectrometry (LC/MS) was carried out using LTQ-Orbitrap Elite mass spectrometer (Thermo Fisher Scientific) coupled to a Famos Autosampler and an Ultimate Pump (LC-Packing, Dionex). Reverse phase chromatography was performed with a binary buffer system consisting of 0.2% formic acid (buffer A) and 80% acetonitrile in 0.2% formic acid (buffer B). After dilution to 1 pmole/μl in 0.2% formic acid, 1 μl of samples were loaded on a Poros 1 R/H column (75 μm×15 cm, Dionex). […] Mass spectra (m/z 500-2,000) were acquired in the positive ITMS mode with 5 μscans accumulation, a target value of 30,000 and a maximum injection time of 100 ms. The acquired raw files were converted in MassLynx format (Waters) using an home-made program and then were deconvoluted using MaxEnt software (Waters).

[7] = test system: several cancer cell lines; test: Cytotoxic activity on several cancer cell lines (preliminary screening); details: all cell lines
[8] = MDA-MB-453 w BSO, 1 h after 100 μM Iniparib
[9] = MDA-MB-453 w BSO, 5 h after 100 μM Iniparib
[10] = MDA-MB-453 w BSO, 24 h after 100 μM Iniparib
[11] = MDA-MB-453 w/o BSO, 24 h after 100 μM Iniparib
[12] = HCT116 w BSO, 1 h after 100 μM Iniparib
[13] = HCT116 w BSO, 5 h after 100 μM Iniparib
[14] = HCT116 w BSO, 24 h after 100 μM Iniparib

SMILES: CC(=O)OC[C@H]1O[C@@H]([S-])[C@H](OC(C)=O)[C@@H](OC(C)=O)[C@@H]1OC(C)=O.CCP(CC)CC.[Au+] [Auranofin]
TrxR1 labeling with Iniparib-biotin after preincubation ([1]; 90-min preincubation of GSH-depleted HCT116 (auranofin 10 μM or Iniparib 100 μM)): abolished
concentration preventing Iniparib-biotin labeling of the 55-kDa protein attributed to TrxR ([1]; GSH-depleted HCT116): 0.1 to 0.3 µM
concentration inhibiting all adduct formation with Iniparib-biotin [2]: 1 to 3 µM
p38MAPK and JNK phosphorylation ([3]; GSH-depleted HCT116, 7 h or 24 h): JNK and p38MAPK activation
TrxR reductase activity (TrxR in MDA-MB-231 cells): inhibition of the reductase activity
inhibition of TrxR activity (TrxR in HCT116 cells; 1 μM, immediately after adding the compound to the cells): inhibited almost completely
IC50 (TrxR in HCT116 cells; 4 h treatment, BSO-pretreated HCT116): 70 nM

SMILES: CCCCS(=N)(=O)CCC(N)C(=O)O [BSO, L-buthionine sulfoximine]
GSH content [4]: below 5 % of controls

SMILES: Nc1cc(C(=O)O)ccc1I [IABA]
Cmax ([5]; 5.1 mg/kg IV 2×/week): 16.6 ± 5.2 ng/mL
Metabolite/iniparib concentration ratio ([5]; 5.1 mg/kg): 3.0 ± 2.0%
Cmax ([5]; 6.1 mg/kg IV 2×/week): 14.9 ± 8.3 ng/mL
Metabolite/iniparib concentration ratio ([5]; 6.1 mg/kg): 2.0 ± 1.5%
Cmax ([5]; 6.8 mg/kg IV 2×/week): 19.9 ± 6.6 ng/mL
Metabolite/iniparib concentration ratio ([5]; 6.8 mg/kg): 2.4 ± 1.4%
Cmax ([5]; 8.0 mg/kg IV 2×/week): 14.5 ± 15.0 ng/mL
Metabolite/iniparib concentration ratio ([5]; 8.0 mg/kg): 0.7 ± 0.7%
Cmax ([5]; 8.6 mg/kg IV 2×/week): 31.5 ± 10.4 ng/mL
Metabolite/iniparib concentration ratio ([5]; 8.6 mg/kg): 2.5 ± 1.4%
Cmax ([5]; 9.5 mg/kg IV 2×/week): 19.8 ± 14.0 ng/mL
Metabolite/iniparib concentration ratio ([5]; 9.5 mg/kg): 2.0 ± 2.0%

SMILES: NC(=O)c1ccc(I)c(N)c1 [I-ABM, 4-iodo-3 aminobenzamide]
Metabolite/iniparib concentration ratio ([5]; 5.1 mg/kg): 1.1 ± 0.6%
Metabolite/iniparib concentration ratio ([5]; 6.1 mg/kg): 0.9 ± 0.6%
Metabolite/iniparib concentration ratio ([5]; 6.8 mg/kg): 1.1 ± 0.9%
Metabolite/iniparib concentration ratio ([5]; 8.0 mg/kg): 0.3 ± 0.1%
Metabolite/iniparib concentration ratio ([5]; 8.6 mg/kg): 0.8 ± 0.6%
Metabolite/iniparib concentration ratio ([5]; 9.5 mg/kg): 0.8 ± 0.6%
Cmax ([5]; human, 5.1 mg/kg IV 2×/week, read-out: Cmax): 5.7 ± 4.1 ng/mL
Cmax ([5]; human, 6.1 mg/kg IV 2×/week, read-out: Cmax): 7.2 ± 1.8 ng/mL
Cmax ([5]; human, 6.8 mg/kg IV 2×/week, read-out: Cmax): 8.4 ± 3.7 ng/mL
Cmax ([5]; human, 8.0 mg/kg IV 2×/week, read-out: Cmax): 10.3 ± 2.9 ng/mL
Cmax ([5]; human, 8.6 mg/kg IV 2×/week, read-out: Cmax): 9.7 ± 2.4 ng/mL
Cmax ([5]; human, 9.5 mg/kg IV 2×/week, read-out: Cmax): 13.6 ± 5.3 ng/mL
Iniparib and metabolites in incubation media (MDA-MB-453 cells; [8]): 0.3 ± 0.1
Iniparib and metabolites in incubation media (MDA-MB-453 cells; [9]): 1.4 ± 0.1
Iniparib and metabolites in incubation media (MDA-MB-453 cells; [10]): 5.4 ± 0.2
Iniparib and metabolites in incubation media (MDA-MB-453 cells; MDA-MB-453 w/o BSO, 1 h after 100 μM Iniparib): 0.2 ± 0.0
Iniparib and metabolites in incubation media (MDA-MB-453 cells; MDA-MB-453 w/o BSO, 5 h after 100 μM Iniparib): 0.5 ± 0.2
Iniparib and metabolites in incubation media (MDA-MB-453 cells; [11]): 2.6 ± 0.2
Iniparib and metabolites in incubation media (HCT116 cells; [12]): 0.3 ± 0.1
Iniparib and metabolites in incubation media (HCT116 cells; [13]): 1.1 ± 0.3
Iniparib and metabolites in incubation media (HCT116 cells; [14]): 4.4 ± 1.2
Iniparib and metabolites in incubation media (HCT116 cells; HCT116 w/o BSO, 1 h after 100 μM Iniparib): 0.2 ± 0.1
Iniparib and metabolites in incubation media (HCT116 cells; HCT116 w/o BSO, 5 h after 100 μM Iniparib): 0.4 ± 0.1
Iniparib and metabolites in incubation media (HCT116 cells; HCT116 w/o BSO, 24 h after 100 μM Iniparib): 0.5 ± 0.2

SMILES: CN[C@@H]1C[C@H]2O[C@@](C)([C@@H]1OC)n1c3ccccc3c3c4c(c5c6ccccc6n2c5c31)C(=O)NC4 [staurosporine, reference compound]
PARP1 cleavage ([3]; GSH-depleted HCT116): triggered PARP1 cleavage
Trx oxidation ([3]; GSH-depleted HCT116, 7 h or 24 h, 100 μM Iniparib, 1 μM Auranofin, 100 nM Staurosporin): unable to induce oxidation of Trx

SMILES: NC(=O)c1ccc(I)c(N=O)c1 [I-NOBA]
reaction with GSH [6]: reacted with GSH
covalent modification of GAPDH (MS analysis) (recombinant human GAPDH; purified GAPDH incubated with compound): formation of protein adducts
blocking of free thiol groups in GAPDH (recombinant human GAPDH; purified GAPDH, biotin-HPDP labeling, streptavidin-HRP blot): completely blocked
cytotoxic activity relative to Iniparib [7]: more active than Iniparib
Iniparib and metabolites in incubation media (MDA-MB-453 cells; [8]): 0.6 ± 0.1
Iniparib and metabolites in incubation media (MDA-MB-453 cells; [9]): 3.5 ± 0.7
Iniparib and metabolites in incubation media (MDA-MB-453 cells; [10]): 2.9 ± 1.0
Iniparib and metabolites in incubation media (MDA-MB-453 cells; [11]): 0.2 ± 0.1
Iniparib and metabolites in incubation media (HCT116 cells; [12]): 4.4 ± 0.0
Iniparib and metabolites in incubation media (HCT116 cells; [13]): 14.6 ± 0.1
Iniparib and metabolites in incubation media (HCT116 cells; [14]): 26.5 ± 2.9

Iniparib and metabolites in incubation media (HCT116 cells; [14]): 0.1 ± 0.0
SMILES: NC(=O)c1ccc(I)c(NO)c1 [I-HABM]
